Test results: US7074412B2, “Pharmaceutical composition” (The University of Zurich, priority 2003, dated 2006)

What was measured:
rhBMP-2 dimers = molecular target: T1, rhBMP-2 dimers (Homo sapiens, UniProt P12643); assay: solubilization of rhBMP-2 pellets in phosphate buffered saline with pyrrolidones; settings: 2 h in phosphate buffered saline with increasing amounts of pyrrolidone
T1 sequence (P12643 283-396): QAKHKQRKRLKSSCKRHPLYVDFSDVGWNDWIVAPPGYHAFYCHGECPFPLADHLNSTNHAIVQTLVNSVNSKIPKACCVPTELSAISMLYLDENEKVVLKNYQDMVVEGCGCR
Method: Two to twenty micrograms of the rhBMP protein was lyophilized in a speed-vac to form a solid rhBMP disc. […] After 2 h the protein in the remaining disc was sedimented (22,000×g, 30 min) and the protein content of 20 μl from the supernatant determined by a slot-blot method (Weber, F. E., et al., 2002, supra).

C3H10T1/2 cells = assay: alkaline phosphatase activity in mesenchymal stem cell line; format: cell-based, murine; settings: C3H10T1/2 cells treated with up to 5 mM NMP; data not shown
Method: (§1) MC3T3-E1 cells were grown in an alpha-modified Minimum Essential Medium (Life Technologies, Inc., Grand Island, N.Y.) containing 10% fetal calf serum (Life Technologies, Inc.), 50 μg/ml gentamycin, and 50 μg/ml ascorbic acid. C3H10T1/2 cells were grown in basal medium Eagle, and 50 μg/ml gentamycin. To examine the action of NMP on both cell lines, 1×10^5 cells per well were plated in 6-well plates and NMP subsequently added. Medium exchange was performed after 3 days and alkaline phosphatase (ALP) was determined according to Lowry, O. et al. [J. Biol. Chem. 207 (1954) 19–37]: p-nitrophenol liberated was converted to p-nitrophenylate by adding 400 μl of 1 M NaOH, which was quantitated by measuring the absorbance at 410 nm (epsilon=17500/molxcm). Alkaline phosphatase activity was normalized to total protein and expressed as nmol nitrophenylate generated per min per mg protein.
(§2) First, to verify the osteoinductive activity of NMP an embryonic, murine, mesenchymal stem cell line C3H10T1/2 and a preosteoblastic cell line MC3T3-E1 were used and cultured as described above. C3H10T1/2 cells can differentiate into cartilage, bone or adipose cells, whereas MC3T3-E1 produces and releases autologous BMP. Alkaline phosphatase activity was used as a marker for the differentiation into the osteoblastic lineage.

MC3T3-E1 cells [1] = assay: mineralization by Alizarin red-S staining; format: cell-based; settings: 4 weeks, 5 Mm glycerol phosphate and 1 μg/ml rhBMP-2, 2.5 Mm NMP vs no NMP
Method: Alizarin red-S staining was performed after 4 weeks according to Bodine, P. V. N., et al. [J Bone Mineral Res 11 (1996) 806–819].

MC3T3-E1 cells [2] = assay: alkaline phosphatase activity as marker of maturation of preosteoblastic cell line; format: cell-based
Method: as §1
as §2, with “lineage. […]” for “lineage.”

SMILES	potential to solubilize rhBMP-2, grading in declining order (rhBMP-2 dimers)	alkaline phosphatase activity (C3H10T1/2 cells)	mineralisation (alizarin-S-staining) (MC3T3-E1 cells [1])	maturation determined by alkaline phosphatase activity, concentration dependence (MC3T3-E1 cells [2]; after 6 days, 0 to 5 Mm of NMP)	increase of alkaline phosphatase activity (factor) (MC3T3-E1 cells [2]; low doses of NMP, MC3T3-E1)
CN1CCCC1=O [NMP, 1-methyl-2-pyrrolidone]	1-methyl-2-pyrrolidone (NMP)>1-ethyl-2-pyrrolidone (NEP)>2-pyrrolidone (PB)>1-cyclohexyl-2-pyrrolidone (CP)	not increased	increased mineralisation	increases in a concentration dependent manner	2.5–3.0
O=C1CCCN1 [PB, 2-pyrrolidone]	1-methyl-2-pyrrolidone (NMP)>1-ethyl-2-pyrrolidone (NEP)>2-pyrrolidone (PB)>1-cyclohexyl-2-pyrrolidone (CP)				
